Values of other authors in patent US20140080845A1, “USE OF ALLOPURINOL FOR THE TREATMENT OF HAND FOOT SKIN REACTION” (NOBERA PHARMA, S.L., priority 2009, published 2014).
Read-outs that look alike come from different tables or passages of the source.

Legend:
[1] = meta-analysis, treated patients

## Oc1ncnc2[nH]ncc12 [Allopurinol, 1H-pyrazolo[3,4-d] pyrimidin-4-ol]
In chloroform and in ether
  solubility: practically insoluble
In dilute solutions of alkali hydroxides
  solubility: dissolves
In water and alcohol
  solubility: very slightly soluble

## CNC(=O)c1cc(Oc2ccc(NC(=O)Nc3ccc(Cl)c(C(F)(F)F)c3)cc2)ccn1 [sorafenib]
[1]
  summary incidence of HFSR, grade 3: 8.9%
  summary incidence of HFSR, grades 1-3: 33.8%

## CCN(CC)CCNC(=O)c1c(C)[nH]c(/C=C2\C(=O)Nc3ccc(F)cc32)c1C [sunitinib]
[1]
  summary incidence of HFSR, grade 3: 5.5%
  summary incidence of HFSR, grades 1-3: 18.9%
